Experimental data published in US20220000117A1, “METHOD FOR CONTROLLING DISEASES IN SMALL GRAIN CEREALS, SEED OF SMALL GRAIN CEREALS, AND METHOD FOR SUPPRESSING LODGING DAMAGE IN SMALL GRAIN CEREALS” (KUMIAI CHEMICAL INDUSTRY CO., LTD., priority 2019, published 2022).

Assays:
[1] = system: wheat (variety: Haruyutaka); assay: Test Example 6: evaluation test of shortening of wheat (culm length, seed yield), field; format: in vivo; details: Propiconazole foliage spray 125 g/ha three times only, no seed treatment
powdery mildew [2] = assay: Test Example 1: control test of wheat powdery mildew, field, wheat variety Haruyutaka; format: in vivo, Blumeria graminis; details: Foliage Treatment, flag leaves, 79 days after seeding
Description: Seed of wheat (variety: Haruyutaka) sterilized in advance with commercial Benlate T wettable powder 20 (“Benlate” is a registered trademark) was used. In Example 1, seed having a mass of 1 kg was mixed into 100 ml of suspension water containing 5 g of dichlobentiazox, air-dried, and then, stripe-sown in a field with a furrow width of 30 cm and a ratio of 163 kg/ha (417 seeds/m^2). In contrast, in Comparative Example 1, seed which had not treated with dichlobentiazox was sown in a field in the same manner, and a spray solution corresponding to that obtained by suspending 500 g of dichlobentiazox in 200 liters of water per 1 ha was sprayed on foliage of wheat three times, during an ear emergence period (63 days after seeding), a flowering period (70 days after seeding), and a flowering end period (77 days after seeding). Similarly, in place of 500 g of dichlobentiazox in Comparative Example 1, 250 g of azoxystrobin (commercial Amistar 20 flowable was used. “Amistar” is a registered trademark) was used in Comparative Example 2, and 125 g of propiconazole (commercial Tilt emulsifiable concentrate 25 was used, “Tilt” is a registered trademark) was used in Comparative Example 3. The presence or absence of disease occurrence and a lesion area ratio of powdery mildew in flag leaves of 30 stems were investigated 79 days after seeding according to the criteria in Table 1, and a disease leaf rate and the degree of disease occurrence were calculated by the following calculation formula (1).
(§1) Degree of Disease Occurrence=Σ(Index×Number of Leaves of Index)/(4×Number of Investigated Leaves)×100 (1)

powdery mildew [3] = assay: Test Example 5: control test of wheat powdery mildew, field, wheat variety Haruyutaka; format: in vivo, Blumeria graminis; details: Seed Treatment 2.5 g/Seed 1 kg (250 g/ha); leaves just below flag leaves, 85 days after seeding
Description: as §1
Seed of wheat (variety: Haruyutaka) sterilized in advance with commercial Benlate T wettable powder 20 (“Benlate” is a registered trademark) was used. In Examples 12, 13, and 14, seed having a mass of 1 kg was mixed into 50 ml of suspension water containing 2.5 g or 1.25 g of dichlobentiazox or 50 ml of suspension water containing 2.5 g of isotianil, air-dried, and then, stripe-sown in a field with a furrow width of 30 cm and a ratio of 100 kg/ha (300 seeds/m^2). Moreover, in Comparative Example 14, seed having a mass of 1 kg was mixed into 50 ml of suspension water containing 2.5 g of tiadinil (commercial V-GET flowable was used, “V-GET” is a registered trademark), air-dried, and then, stripe-sown in a field with a furrow width of 30 cm and a ratio of 100 kg/ha (300 seeds/m^2). The presence or absence of disease occurrence and a lesion area ratio of powdery mildew in leaves just below hag leaves (next leaves) of 30 stems were investigated 85 days after seeding by according to the criteria in Table 1, and a disease leaf rate and the degree of disease occurrence were calculated by the above calculation formula(1).

septoria leaf blotch = assay: Test Example 10: control test of septoria leaf blotch of wheat, cup in greenhouse, inoculated, variety ARKEOS (Tables 15 to 19); format: in vivo, Septoria tritici
Description: as §1
Seed of wheat (variety: ARKEOS) was used, and 100 ml of suspension waters each containing the compound shown in Table 15 at an amount shown in Table 15 (synthesis was performed in accordance with a known method, a liquid dissolved in a small amount of DMSO or formulated 10% wettable powder was used) were prepared. Seed having a mass of 1 kg was mixed into the suspension water with a rate shown in Examples of Table 15, and air-dried, and then, 5 seeds were sown in a plastic cup having a diameter of 6 cm containing mixed soil of river sand and horticultural soil and managed in a greenhouse. In Comparative Examples, 20 ml of suspension water of an active ingredient, which had been adjusted to have a concentration shown in Table 15 to 19, was sprayed in a frame of 45 cm×45 cm in which a pot of wheat seedlings was placed (corresponding to 1000 L/ha) 14 days after seeding. On day 14 after seeding, a spore suspension in which conidiospores of septoria leaf blotch are suspended was sprayed and inoculated on leaves of wheat seedlings (after the sprayed liquid was dried in the case of Comparative Examples), a lesion area ratio of septoria leaf blotch in a second leaf was investigated approximately 35 days after seeding according to the criteria in Table 1, and the degree of disease occurrence was calculated by the above calculation formula (1).

powdery mildew [4] = assay: Test Example 9: control test of wheat powdery mildew, cup in greenhouse, inoculated, Norin No. 61 (Tables 10 to 14); format: in vivo, Blumeria graminis; set-up: key to Degree of Disease Occurrence: Σ(index×leaves)/(4×leaves investigated)×100; 0 = no disease, 100 = max
Description: as §1
Seed of wheat (variety: Norin No. 61) was used, and 100 ml of suspension waters each containing the compound shown in Table 10 at an amount shown in […] (synthesis was performed in accordance with a known method, a solution dissolved in DMSO or formulated 10% wettable powder was used) were prepared. The seed having a mass of 1 kg of wheat was mixed into the suspension water with a chemical treated amount shown in Table 10, and air-dried, and then, 5 seeds were sown in a plastic cup having a diameter of 6 cm containing river sand and managed in a greenhouse. In Comparative Examples, 20 ml of the suspension water of an active ingredient, which had been adjusted to have a concentration shown in Table 10, was sprayed in a frame of 45 cm×45 cm in which a pot of wheat seedlings was placed (corresponding to 1000 L/ha) 14 days after seeding. On day 14 after seeding, conidiospores of powdery mildew were sifted over leaves of wheat seedlings and inoculated onto the leaves (after the sprayed liquid was dried in the case of Comparative Examples), a lesion area ratio of powdery mildew in a first leaf was investigated 21 days after seeding according to the criteria in Table 1, and the degree of disease occurrence was calculated by the above calculation formula (1).

[5] = Table 11 run (different day), Foliage Treatment, spray 10 ppm (10 g/ha)
[6] = Table 11 run (different day), Foliage Treatment, spray 50 ppm (50 g/ha)
[7] = Table 11 run (different day), Seed Treatment 0.1 g/Seed 1 kg (10 g/ha)
[8] = Table 11 run (different day), Seed Treatment 0.5 g/Seed 1 kg (50 g/ha)
[9] = Table 13 run (different day), Foliage Treatment, spray 10 ppm (10 g/ha)
[10] = Table 13 run (different day), Seed Treatment 0.1 g/Seed 1 kg (10 g/ha)
[11] = Table 18, Foliage Treatment, spray 5 ppm (5 g/ha)
[12] = Table 18, Foliage Treatment, spray 10 ppm (10 g/ha)
[13] = Table 18, Seed Treatment 0.05 g/Seed 1 kg (5 g/ha)
[14] = Table 18, Seed Treatment 0.1 g/Seed 1 kg (10 g/ha)
[15] = Table 12 run (different day), Foliage Treatment, spray 5 ppm (5 g/ha)
[16] = Table 12 run (different day), Foliage Treatment, spray 10 ppm (10 g/ha)
[17] = Table 12 run (different day), Foliage Treatment, spray 50 ppm (50 g/ha)
[18] = Table 12 run (different day), Seed Treatment 0.05 g/Seed 1 kg (5 g/ha)
[19] = Table 12 run (different day), Seed Treatment 0.1 g/Seed 1 kg (10 g/ha)
[20] = Table 12 run (different day), Seed Treatment 0.5 g/Seed 1 kg (50 g/ha)

## CCCC1COC(Cn2cncn2)(c2ccc(Cl)cc2Cl)O1 (stereo not drawn) [Propiconazole, propiconazole, reference compound]
[1]; harvested 106 days after seeding
  Culm Length (cm): 82.5 cm
[1]; wheat in 3 m2, 106 days after seeding
  Seed Yield: 990 g
Powdery mildew [2]; spray 125 g/ha three times
  Degree of Disease Occurrence: 4.4
  Disease Leaf Rate (%): 32.2%

## Cc1ccc(NC(=O)c2snnc2C)cc1Cl [Tiadinil, tiadinil, reference compound]
Powdery mildew [3]
  Degree of Disease Occurrence: 11.0
  Disease Leaf Rate (%): 33.3%

## CCOC(=O)c1snc(Cl)c1Cl [Compound (8)]
Septoria leaf blotch; Table 17, Foliage Treatment, spray 5 ppm suspension water (corresponding to 5 g/ha) 14 days after seeding, untreated 50.0
  Degree of Disease Occurrence: 38.3
Septoria leaf blotch; Table 17, Foliage Treatment, spray 5 ppm suspension water (corresponding to 5 g/ha) 14 days after seeding, untreated 100.0
  Disease Leaf Rate (%): 100.0%
Septoria leaf blotch; Table 17, Foliage Treatment, spray 50 ppm suspension water (corresponding to 50 g/ha) 14 days after seeding, untreated 50.0
  Degree of Disease Occurrence: 31.7
Septoria leaf blotch; Table 17, Foliage Treatment, spray 50 ppm suspension water (corresponding to 50 g/ha) 14 days after seeding, untreated 100.0
  Disease Leaf Rate (%): 100.0%
Septoria leaf blotch; Table 17, Foliage Treatment, spray 100 ppm suspension water (corresponding to 100 g/ha) 14 days after seeding, untreated 50.0
  Degree of Disease Occurrence: 26.7
Septoria leaf blotch; Table 17, Foliage Treatment, spray 100 ppm suspension water (corresponding to 100 g/ha) 14 days after seeding, untreated 100.0
  Disease Leaf Rate (%): 93.3%
Septoria leaf blotch; Table 17, Seed Treatment, 0.05 g/Seed 1 kg (corresponding to 5 g/ha), untreated 50.0
  Degree of Disease Occurrence: 23.8
Septoria leaf blotch; Table 17, Seed Treatment, 0.05 g/Seed 1 kg (corresponding to 5 g/ha), untreated 100.0
  Disease Leaf Rate (%): 90.0%
Septoria leaf blotch; Table 17, Seed Treatment, 0.5 g/Seed 1 kg (corresponding to 50 g/ha), untreated 50.0
  Degree of Disease Occurrence: 10.3
Septoria leaf blotch; Table 17, Seed Treatment, 0.5 g/Seed 1 kg (corresponding to 50 g/ha), untreated 100.0
  Disease Leaf Rate (%): 36.3%
Septoria leaf blotch; Table 17, Seed Treatment, 1 g/Seed 1 kg (corresponding to 100 g/ha), untreated 50.0
  Degree of Disease Occurrence: 8.8
Septoria leaf blotch; Table 17, Seed Treatment, 1 g/Seed 1 kg (corresponding to 100 g/ha), untreated 100.0
  Disease Leaf Rate (%): 35.0%
Powdery mildew [4]; [5]
  Degree of Disease Occurrence: 96.9
  Disease Leaf Rate (%): 100%
Powdery mildew [4]; [6]
  Degree of Disease Occurrence: 94.8
  Disease Leaf Rate (%): 100%
Powdery mildew [4]; [7]
  Degree of Disease Occurrence: 80.2
  Disease Leaf Rate (%): 100%
Powdery mildew [4]; [8]
  Degree of Disease Occurrence: 75.1
  Disease Leaf Rate (%): 96.4%
Powdery mildew [4]; [9]
  Degree of Disease Occurrence: 72.8
  Disease Leaf Rate (%): 100.0%
Powdery mildew [4]; [10]
  Degree of Disease Occurrence: 49.7
  Disease Leaf Rate (%): 95.8%

## CO/C=C(/C(=O)OC)c1ccccc1Oc1cc(Oc2ccccc2C#N)ncn1 [Azoxystrobin, azoxystrobin, reference compound]
Powdery mildew [2]; spray 250 g/ha three times
  Degree of Disease Occurrence: 17.6
  Disease Leaf Rate (%): 90.0%

## N=C(N)c1snc(Cl)c1Cl [Compound (13)]
Septoria leaf blotch; [11]
  Degree of Disease Occurrence: 60.0
  Disease Leaf Rate (%): 100.0%
Septoria leaf blotch; [12]
  Degree of Disease Occurrence: 68.3
  Disease Leaf Rate (%): 100.0%
Septoria leaf blotch; [13]
  Degree of Disease Occurrence: 28.8
  Disease Leaf Rate (%): 95.0%
Septoria leaf blotch; [14]
  Degree of Disease Occurrence: 42.5
  Disease Leaf Rate (%): 100.0%
Powdery mildew [4]; [15]
  Degree of Disease Occurrence: 60.0
  Disease Leaf Rate (%): 100.0%
Powdery mildew [4]; [16]
  Degree of Disease Occurrence: 36.7
  Disease Leaf Rate (%): 53.3%
Powdery mildew [4]; [17]
  Degree of Disease Occurrence: 21.7
  Disease Leaf Rate (%): 53.3%
Powdery mildew [4]; [18]
  Degree of Disease Occurrence: 19.4
  Disease Leaf Rate (%): 53.3%
Powdery mildew [4]; [19]
  Degree of Disease Occurrence: 7.5
  Disease Leaf Rate (%): 20.0%
Powdery mildew [4]; [20]
  Degree of Disease Occurrence: 9.7
  Disease Leaf Rate (%): 38.9%
Powdery mildew [4]; Table 14, Foliage Treatment, spray 10 ppm suspension water (corresponding to 10 g/ha) 14 days after seeding, untreated 70.0
  Degree of Disease Occurrence: 35.6
Powdery mildew [4]; Table 14, Foliage Treatment, spray 10 ppm suspension water (corresponding to 10 g/ha) 14 days after seeding, untreated 100.0
  Disease Leaf Rate (%): 76.7%
Powdery mildew [4]; Table 14, Foliage Treatment, spray 50 ppm suspension water (corresponding to 50 g/ha) 14 days after seeding, untreated 70.0
  Degree of Disease Occurrence: 31.3
Powdery mildew [4]; Table 14, Foliage Treatment, spray 50 ppm suspension water (corresponding to 50 g/ha) 14 days after seeding, untreated 100.0
  Disease Leaf Rate (%): 83.3%
Powdery mildew [4]; Table 14, Seed Treatment, 0.1 g/Seed 1 kg (corresponding to 10 g/ha), first leaf, 21 days after seeding, untreated 70.0
  Degree of Disease Occurrence: 17.2
Powdery mildew [4]; Table 14, Seed Treatment, 0.1 g/Seed 1 kg (corresponding to 10 g/ha), first leaf, 21 days after seeding, untreated 100.0
  Disease Leaf Rate (%): 68.8%
Powdery mildew [4]; Table 14, Seed Treatment, 0.5 g/Seed 1 kg (corresponding to 50 g/ha), first leaf, 21 days after seeding, untreated 70.0
  Degree of Disease Occurrence: 13.9
Powdery mildew [4]; Table 14, Seed Treatment, 0.5 g/Seed 1 kg (corresponding to 50 g/ha), first leaf, 21 days after seeding, untreated 100.0
  Disease Leaf Rate (%): 44.4%
